# Source: PubChem BioAssay (NCI)
#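 Briefly, cells in 96-well plates were exposed to five compound concentrations for 48 h, and endpoints were estimated by linear interpolation. TGI denotes the concentration required for complete inhibition of growth.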
# Tests used:
# Assay in all cases: NCI anticancer screen, dose series, 48 h
# 786-0 renal = test system: 786-0 renal
# A498 renal = test system: A498 renal
# A549 NSCLC = test system: A549 NSCLC
# ACHN renal = test system: ACHN renal
# CAKI-1 renal = test system: CAKI-1 renal
# CCRF-CEM leukemia = test system: CCRF-CEM leukemia
# COLO 205 colon = test system: COLO 205 colon
# DU-145 prostate = test system: DU-145 prostate
# EKVX NSCLC = test system: EKVX NSCLC
# HCC-2998 colon = test system: HCC-2998 colon
# HCT-116 colon = test system: HCT-116 colon
# HCT-15 colon = test system: HCT-15 colon
# HL-60(TB) leukemia = test system: HL-60(TB) leukemia
# HOP-62 NSCLC = test system: HOP-62 NSCLC
# HS 578T breast = test system: HS 578T breast
# HT29 colon = test system: HT29 colon
# IGROV1 ovarian = test system: IGROV1 ovarian
# K-562 leukemia = test system: K-562 leukemia
# KM12 colon = test system: KM12 colon
# LOX IMVI melanoma = test system: LOX IMVI melanoma
# M14 melanoma = test system: M14 melanoma
# MALME-3M melanoma = test system: MALME-3M melanoma
# MCF7 breast = test system: MCF7 breast
# MDA-MB-231 breast = test system: MDA-MB-231 breast
# MDA-MB-435 = test system: MDA-MB-435
# MDA-N = test system: MDA-N
# MOLT-4 leukemia = test system: MOLT-4 leukemia
# NCI-H226 lung = test system: NCI-H226 lung
# NCI-H23 lung = test system: NCI-H23 lung
# NCI-H460 lung = test system: NCI-H460 lung
# NCI-H522 lung = test system: NCI-H522 lung
# NCI/ADR-RES ovarian = test system: NCI/ADR-RES ovarian
# OVCAR-3 ovarian = test system: OVCAR-3 ovarian
# OVCAR-4 ovarian = test system: OVCAR-4 ovarian
# OVCAR-5 ovarian = test system: OVCAR-5 ovarian
# OVCAR-8 ovarian = test system: OVCAR-8 ovarian
# PC-3 prostate = test system: PC-3 prostate
# RPMI-8226 leukemia = test system: RPMI-8226 leukemia
# RXF 393 renal = test system: RXF 393 renal
# SF-268 CNS = test system: SF-268 CNS
# SF-295 CNS = test system: SF-295 CNS
# SF-539 CNS = test system: SF-539 CNS
# SK-MEL-2 melanoma = test system: SK-MEL-2 melanoma
# SK-MEL-28 melanoma = test system: SK-MEL-28 melanoma
# SK-MEL-5 melanoma = test system: SK-MEL-5 melanoma
# SK-OV-3 ovarian = test system: SK-OV-3 ovarian
# SN12C renal = test system: SN12C renal
# SNB-19 CNS = test system: SNB-19 CNS
# SNB-75 CNS = test system: SNB-75 CNS
# SR leukemia = test system: SR leukemia
# SW-620 colon = test system: SW-620 colon
# T-47D breast = test system: T-47D breast
# U251 CNS = test system: U251 CNS
# UACC-257 melanoma = test system: UACC-257 melanoma
# UACC-62 melanoma = test system: UACC-62 melanoma
# UO-31 renal = test system: UO-31 renal
smiles,measurement,setting,value
Cc1ccc(NCCCN2CCN(CCCNc3ccc(C)c4sc5ccccc5c(=O)c34)CC2)c2c(=O)c3ccccc3sc12,TGI,786-0 renal,> 100 µM
same,TGI,A498 renal,> 100 µM
same,TGI,A549 NSCLC,> 100 µM
same,TGI,ACHN renal,> 100 µM
same,TGI,CAKI-1 renal,> 100 µM
same,TGI,CCRF-CEM leukemia,> 100 µM
same,TGI,COLO 205 colon,> 100 µM
same,TGI,DU-145 prostate,> 100 µM
same,TGI,EKVX NSCLC,> 100 µM
same,TGI,HCC-2998 colon,> 100 µM
same,TGI,HCT-116 colon,> 100 µM
same,TGI,HCT-15 colon,> 100 µM
same,TGI,HL-60(TB) leukemia,> 100 µM
same,TGI,HOP-62 NSCLC,> 100 µM
same,TGI,HS 578T breast,79.6 µM
same,TGI,HT29 colon,> 100 µM
same,TGI,IGROV1 ovarian,> 100 µM
same,TGI,K-562 leukemia,> 100 µM
same,TGI,KM12 colon,> 100 µM
same,TGI,LOX IMVI melanoma,> 100 µM
same,TGI,M14 melanoma,> 100 µM
same,TGI,MALME-3M melanoma,> 100 µM
same,TGI,MCF7 breast,> 100 µM
same,TGI,MDA-MB-231 breast,> 100 µM
same,TGI,MDA-MB-435,> 100 µM
same,TGI,MDA-N,> 100 µM
same,TGI,MOLT-4 leukemia,> 100 µM
same,TGI,NCI-H226 lung,> 100 µM
same,TGI,NCI-H23 lung,> 100 µM
same,TGI,NCI-H460 lung,> 100 µM
same,TGI,NCI-H522 lung,> 100 µM
same,TGI,NCI/ADR-RES ovarian,> 100 µM
same,TGI,OVCAR-3 ovarian,> 100 µM
same,TGI,OVCAR-4 ovarian,> 100 µM
same,TGI,OVCAR-5 ovarian,> 100 µM
same,TGI,OVCAR-8 ovarian,> 100 µM
same,TGI,PC-3 prostate,> 100 µM
same,TGI,RPMI-8226 leukemia,> 100 µM
same,TGI,RXF 393 renal,> 100 µM
same,TGI,SF-268 CNS,> 100 µM
same,TGI,SF-295 CNS,> 100 µM
same,TGI,SF-539 CNS,> 100 µM
same,TGI,SK-MEL-2 melanoma,93.8 µM
same,TGI,SK-MEL-28 melanoma,> 100 µM
same,TGI,SK-MEL-5 melanoma,> 100 µM
same,TGI,SK-OV-3 ovarian,> 100 µM
same,TGI,SN12C renal,> 100 µM
same,TGI,SNB-19 CNS,> 100 µM
same,TGI,SNB-75 CNS,57.1 µM
same,TGI,SR leukemia,> 100 µM
same,TGI,SW-620 colon,> 100 µM
same,TGI,T-47D breast,> 100 µM
same,TGI,U251 CNS,> 100 µM
same,TGI,UACC-257 melanoma,> 100 µM
same,TGI,UACC-62 melanoma,> 100 µM
same,TGI,UO-31 renal,> 100 µM
